Experimental data published in patent US10407467B2, “Polymyxin derivatives and their use in combination therapy together with different antibiotics” (priority 2013, dated 2019).
Structures can show the parent of a compound that is named as a salt. Bridge positions count the residues as written; N and C are the ends. Square brackets hold non-standard residues; d marks the D form. Peptide text beside a SMILES is read from it. * marks the point of attachment. ξ: configuration not given here. ξβ3hGly(cHex) = NC(CC(=O)*)C1CCCCC1; Thr(3ξ) = CC(O)[C@H](N)C(=O)O; X11 = O=C(C(O)c1cccc(Br)c1)*; X13 = O=C(CC[C@@H]1CCCN1)*; X9 = CC(C)[C@H](N)CCC(=O)*; Dab = NCC[C@H](N)C(=O)O; X14 = CC(C)(N)CCC(=O)*; βAla = NCCC(=O)O

What was measured:
Type in all cases: cell-based
Pseudomonas aeruginosa [1] = test: MIC, compound in combination with a second agent (broth microdilution); conditions: 1:1 (wt:wt) combination with Rifampicin, MIC = total drug concentration; for MIC P. aeruginosa ATCC 27853: strain ATCC 27853; for MIC P. aeruginosa ATCC CRM-9027: strain ATCC CRM-9027; for MIC P. aeruginosa ATCC-47: strain ATCC-47; for MIC P. aeruginosa CCUG 59626: strain CCUG 59626
In short: (§1)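 Read-out is the total-drug MIC of a 1:1 weight ratio combination with another agent, e.g. rifampicin. Duplicates within 2-fold gave the lower value; wider spread meant a non-valid assay. Where compounds were tested multiple times, the mode is given.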

Escherichia coli [2] = test: as above; conditions: 1:1 (wt:wt) combination with Rifampicin, MIC = total drug concentration; for MIC E. coli ATCC25922: strain ATCC25922; for MIC E. coli NCTC9001: strain NCTC9001
In short: as §1

Klebsiella pneumoniae [3] = test: as above; conditions: 1:1 (wt:wt) combination with Rifampicin, MIC = total drug concentration; for MIC K. pneumoniae ATCC-BAA-2146: strain ATCC-BAA-2146; for MIC K. pneumoniae CCUG-59348: strain CCUG-59348; for MIC K. pneumoniae NCTC 13438: strain NCTC 13438
In short: as §1

Acinetobacter baumannii [4] = test: as above; conditions: 1:1 (wt:wt) combination with Rifampicin, MIC = total drug concentration; for MIC A. baumannii ATCC BAA-747: strain ATCC BAA-747; for MIC A. baumannii CCUG57249: strain CCUG57249; for MIC A. baumannii NCTC 13423: strain NCTC 13423; for MIC A. baumannii NCTC 13424: strain NCTC 13424
In short: as §1

Pseudomonas aeruginosa [5] = test: MIC, sole activity (no second agent); conditions: in the absence of Rifampicin; for MIC P. aeruginosa ATCC 27853: strain ATCC27853; for MIC P. aeruginosa ATCCCRM-9027: strain ATCCCRM-9027
In short: (§2)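 Up to four strains per species were tested in cation-adjusted Mueller-Hinton broth, with inoculum made by direct colony suspension from 18-24 hour Mueller-Hinton agar plates, adjusted to 0.5 McFarland. Duplicates differing by under 2-fold gave the lower value; greater spread voided the run. Values are relative to Polymyxin B.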

Escherichia coli [6] = test: MIC, sole activity (no second agent); conditions: in the absence of Rifampicin; for MIC E. coli ATCC25922: strain ATCC25922; for MIC E. coli NCTC9001: strain NCTC9001
In short: as §2

Klebsiella pneumoniae [7] = test: MIC, sole activity (no second agent); conditions: in the absence of Rifampicin; for MIC K. pneumoniae ATCC 4352: strain ATCC 4352; for MIC K. pneumoniae ATCC-BAA2146: strain ATCC-BAA2146; for MIC K. pneumoniae CCUG-59348: strain CCUG-59348; for MIC K. pneumoniae NCTC-13438: strain NCTC-13438
In short: as §2

Acinetobacter baumannii [8] = test: MIC, sole activity (no second agent); conditions: in the absence of Rifampicin; for MIC A. baumannii ATCCBAA-747: strain ATCCBAA-747; for MIC A. baumannii NCTC 13423: strain NCTC13423
In short: as §2

| Structure (SMILES) | MIC P. aeruginosa ATCC 27853 (Pseudomonas aeruginosa [1]) | MIC P. aeruginosa ATCC CRM-9027 (Pseudomonas aeruginosa [1]) | MIC P. aeruginosa ATCC-47 (Pseudomonas aeruginosa [1]) | MIC P. aeruginosa CCUG 59626 (Pseudomonas aeruginosa [1]) | MIC E. coli ATCC25922 (Escherichia coli [2]) | MIC E. coli NCTC9001 (Escherichia coli [2]) | MIC K. pneumoniae ATCC-BAA-2146 (Klebsiella pneumoniae [3]) | MIC K. pneumoniae CCUG-59348 (Klebsiella pneumoniae [3]) | MIC K. pneumoniae NCTC 13438 (Klebsiella pneumoniae [3]) | MIC A. baumannii CCUG57249 (Acinetobacter baumannii [4]) | MIC A. baumannii NCTC 13423 (Acinetobacter baumannii [4]) | MIC A. baumannii NCTC 13424 (Acinetobacter baumannii [4]) | MIC P. aeruginosa ATCC 27853 (Pseudomonas aeruginosa [5]) | MIC E. coli ATCC25922 (Escherichia coli [6]) | MIC K. pneumoniae ATCC 4352 (Klebsiella pneumoniae [7]) | MIC K. pneumoniae ATCC-BAA2146 (Klebsiella pneumoniae [7]) | MIC K. pneumoniae CCUG-59348 (Klebsiella pneumoniae [7]) | MIC K. pneumoniae NCTC-13438 (Klebsiella pneumoniae [7]) | MIC E. coli NCTC9001 (Escherichia coli [6]) | further results |
| --- | --- | --- | --- | --- | --- | --- | --- | --- | --- | --- | --- | --- | --- | --- | --- | --- | --- | --- | --- | --- |
| CC(C)C[C@@H]1NC(=O)[C@@H](CC(C)C)NC(=O)[C@H](CCN)NC(=O)[C@@H](NC(=O)[C@H](CCN)NC(=O)[C@@H](NC(=O)C(O)C2CCCCC2)C(C)O)CCNC(=O)[C@H](C(C)O)NC(=O)[C@H](CCN)NC(=O)[C@H](CCN)NC1=O (single isomer, unassigned; isomer 1) [Example 31, 2(RS)-(2-Hydroxy-2-cyclohexyl)ethanoyl polymyxin E nonapeptide, TFA salt. Isomer 1] | 0.5 micrograms/mL | 0.5 micrograms/mL | 0.5 micrograms/mL | 0.25 micrograms/mL | 0.25 micrograms/mL | 0.5 micrograms/mL | 2 micrograms/mL | 2 micrograms/mL | 1 micrograms/mL | 0.25 micrograms/mL | 0.25 micrograms/mL | 0.5 micrograms/mL |  |  |  |  |  |  |  | MIC A. baumannii ATCC BAA-747 (Acinetobacter baumannii [4]): 0.25 micrograms/mL |
| CC(C)C[C@@H]1NC(=O)[C@@H](Cc2ccccc2)NC(=O)[C@H](CCN)NC(=O)[C@@H](NC(=O)[C@H](CCN)NC(=O)[C@@H](NC(=O)CC[C@@H](N)C(C)C)C(C)O)CCNC(=O)[C@H](C(C)O)NC(=O)[C@H](CCN)NC(=O)[C@H](CCN)NC1=O (stereo partly drawn) [Example 22, 4(R)-Amino-5-methylhexanoyl polymyxin B nonapeptide] (X9-[Thr(3ξ)][Dab][Dab][Dab][dF]L[Dab][Dab][Thr(3ξ)]; lactam 3-C) |  |  |  |  |  | 0.125 micrograms/mL | 0.25 micrograms/mL | 4 micrograms/mL | 0.5 micrograms/mL |  |  |  | 0.125 micrograms/mL | 8 micrograms/mL | 0.5 micrograms/mL | >32 micrograms/mL | >32 micrograms/mL | >32 micrograms/mL | >32 micrograms/mL | MIC P. aeruginosa ATCCCRM-9027 (Pseudomonas aeruginosa [5]): 0.5 micrograms/mL; MIC A. baumannii ATCCBAA-747 (Acinetobacter baumannii [8]): 1 micrograms/mL; MIC A. baumannii NCTC 13423 (Acinetobacter baumannii [8]): 0.5 micrograms/mL |
| CC(C)C[C@@H]1NC(=O)[C@@H](Cc2ccccc2)NC(=O)[C@H](CCN)NC(=O)[C@@H](NC(=O)[C@H](CCN)NC(=O)[C@@H](NC(=O)CC[C@@H]2CCCN2)C(C)O)CCNC(=O)[C@H](C(C)O)NC(=O)[C@H](CCN)NC(=O)[C@H](CCN)NC1=O (stereo partly drawn) [Example 23, 3-(S)-(1-pyrrolidin-2-yl)-propionyl polymyxin B nonapeptide] (X13-[Thr(3ξ)][Dab][Dab][Dab][dF]L[Dab][Dab][Thr(3ξ)]; lactam 3-C) |  |  |  |  |  | 0.25 micrograms/mL | 1 micrograms/mL | 8 micrograms/mL | 1 micrograms/mL |  |  |  | 0.125 micrograms/mL | 16 micrograms/mL | 1 micrograms/mL | >32 micrograms/mL | >32 micrograms/mL | >32 micrograms/mL | >32 micrograms/mL |  |
| CC(C)C[C@@H]1NC(=O)[C@@H](CC(C)C)NC(=O)[C@H](CCN)NC(=O)[C@@H](NC(=O)[C@H](CCN)NC(=O)[C@@H](NC(=O)CC(N)C2CCCCC2)C(C)O)CCNC(=O)[C@H](C(C)O)NC(=O)[C@H](CCN)NC(=O)[C@H](CCN)NC1=O (stereo partly drawn) [Example 30, 3(R,S)-3-Amino-3-cyclohexane-propanoyl]Polymyxin E nonapeptide, TFA salt] ({ξβ3hGly(cHex)}-[Thr(3ξ)][Dab][Dab][Dab][dL]L[Dab][Dab][Thr(3ξ)]; lactam 3-C) | 0.25 micrograms/mL | 0.125 micrograms/mL | 0.125 micrograms/mL | 0.25 micrograms/mL | 0.25 micrograms/mL |  | 0.25 micrograms/mL | 2 micrograms/mL | 0.5 micrograms/mL | 0.125 micrograms/mL | ≤0.06 micrograms/mL | <0.06 micrograms/mL |  |  |  |  |  |  |  | MIC A. baumannii ATCC BAA-747 (Acinetobacter baumannii [4]): ≤0.06 micrograms/mL |

Further lines, with some results ahead:

| MIC P. aeruginosa ATCC 27853 (Pseudomonas aeruginosa [1]) | MIC P. aeruginosa ATCC CRM-9027 (Pseudomonas aeruginosa [1]) | MIC P. aeruginosa ATCC-47 (Pseudomonas aeruginosa [1]) | MIC P. aeruginosa CCUG 59626 (Pseudomonas aeruginosa [1]) | MIC E. coli ATCC25922 (Escherichia coli [2]) | MIC E. coli NCTC9001 (Escherichia coli [2]) | MIC K. pneumoniae ATCC-BAA-2146 (Klebsiella pneumoniae [3]) | MIC K. pneumoniae CCUG-59348 (Klebsiella pneumoniae [3]) | MIC K. pneumoniae NCTC 13438 (Klebsiella pneumoniae [3]) | MIC A. baumannii CCUG57249 (Acinetobacter baumannii [4]) | MIC A. baumannii NCTC 13423 (Acinetobacter baumannii [4]) | MIC A. baumannii NCTC 13424 (Acinetobacter baumannii [4]) | MIC P. aeruginosa ATCC 27853 (Pseudomonas aeruginosa [5]) | MIC E. coli ATCC25922 (Escherichia coli [6]) | MIC K. pneumoniae ATCC 4352 (Klebsiella pneumoniae [7]) | MIC K. pneumoniae ATCC-BAA2146 (Klebsiella pneumoniae [7]) | MIC K. pneumoniae CCUG-59348 (Klebsiella pneumoniae [7]) | MIC K. pneumoniae NCTC-13438 (Klebsiella pneumoniae [7]) | MIC E. coli NCTC9001 (Escherichia coli [6]) | Structure (SMILES) | further results |
| --- | --- | --- | --- | --- | --- | --- | --- | --- | --- | --- | --- | --- | --- | --- | --- | --- | --- | --- | --- | --- |
|  |  |  |  |  | 0.25 micrograms/mL | 1 micrograms/mL | 8 micrograms/mL | 2 micrograms/mL |  |  |  | 0.125 micrograms/mL | 2 micrograms/mL | 0.125 micrograms/mL | >32 micrograms/mL | >32 micrograms/mL | >32 micrograms/mL |  | CC(C)C[C@@H]1NC(=O)[C@@H](Cc2ccccc2)NC(=O)[C@H](CCN)NC(=O)[C@@H](NC(=O)[C@H](CCN)NC(=O)[C@@H](NC(=O)CCN)C(C)O)CCNC(=O)[C@H](C(C)O)NC(=O)[C@H](CCN)NC(=O)[C@H](CCN)NC1=O (stereo partly drawn) [Example 3, 3-Aminopropanoyl polymyxin B nonapeptide] (H-[βAla][Thr(3ξ)][Dab][Dab][Dab][dF]L[Dab][Dab][Thr(3ξ)]; lactam 4-C) | MIC P. aeruginosa ATCCCRM-9027 (Pseudomonas aeruginosa [5]): 0.25 micrograms/mL; MIC A. baumannii ATCCBAA-747 (Acinetobacter baumannii [8]): 1 micrograms/mL; MIC A. baumannii NCTC 13423 (Acinetobacter baumannii [8]): 1 micrograms/mL |
| 0.25 micrograms/mL | 1 micrograms/mL | 0.5 micrograms/mL | 0.25 micrograms/mL | 0.125 micrograms/mL | 1 micrograms/mL | 0.5 micrograms/mL | 2 micrograms/mL | 0.5 micrograms/mL | ≤0.06 micrograms/mL | 0.125 micrograms/mL | 0.125 micrograms/mL |  |  |  |  |  |  |  | CC(C)C[C@@H]1NC(=O)[C@@H](Cc2ccccc2)NC(=O)[C@H](CCN)NC(=O)[C@@H](NC(=O)[C@H](CCN)NC(=O)[C@@H](NC(=O)C(O)c2cccc(Br)c2)C(C)O)CCNC(=O)[C@H](C(C)O)NC(=O)[C@H](CCN)NC(=O)[C@H](CCN)NC1=O (stereo partly drawn) [Example 18] (X11-[Thr(3ξ)][Dab][Dab][Dab][dF]L[Dab][Dab][Thr(3ξ)]; lactam 3-C) | MIC K. pneumoniae ATCC 4352 (Klebsiella pneumoniae [3]; strain ATCC 4352): 0.125 micrograms/mL |
|  |  |  |  |  | 0.25 micrograms/mL | 0.5 micrograms/mL | 8 micrograms/mL | 0.5 micrograms/mL |  |  |  | <0.06 micrograms/mL | 4 micrograms/mL | 0.25 micrograms/mL | >32 micrograms/mL | >32 micrograms/mL | >32 micrograms/mL | >32 micrograms/mL | CC(C)C[C@@H]1NC(=O)[C@@H](Cc2ccccc2)NC(=O)[C@H](CCN)NC(=O)[C@@H](NC(=O)[C@H](CCN)NC(=O)[C@@H](NC(=O)CCC(C)(C)N)C(C)O)CCNC(=O)[C@H](C(C)O)NC(=O)[C@H](CCN)NC(=O)[C@H](CCN)NC1=O (stereo partly drawn) [Example 21, 4-Amino-4-methyl pentanoyl polymyxin B nonapeptide] (X14-[Thr(3ξ)][Dab][Dab][Dab][dF]L[Dab][Dab][Thr(3ξ)]; lactam 3-C) |  |
